Data from patent US8088799B2, “Pharmaceutical composition comprising a sodium hydrogen exchange inhibitor and an angiotensin converting enzyme inhibitor” (Sanofi-Aventis Deutschland GmbH, priority 2002, dated 2012).
“Also recorded” adds a separate entry of the source.

What was measured:
[1] = system: spontaneously hypertensive rats (SHR); assay: Survival rate of old spontaneously hypertensive rats under late-onset treatment; format: in vivo, rat; design: key to Holm-adjusted log rank test of survival vs. Cariporide / Holm-adjusted log rank test of survival vs. Placebo: * indicates significant difference; n.s. = not significant; conditions: for Median survival time: time from start of treatment (18th month of life) at which survival rate reaches 50%, Kaplan-Meier estimate
Experimental: (§1) The pharmacological model of spontaneously hypertensive rat is generally accepted to be representative of human essential hypertony. In each experimental group initially 27 18-months old rats were employed. 3 months after the start of treatment, when the number of surviving animals in the placebo control group was only 7, an interim analysis was carried out on 7 animals from each group.
The effect of a ramipril and cariporide combination product on the survival rate of rats with genetically related hypertension was investigated.
(§2) In the experiment old hypertensive rats (age: 18 months) were treated with the NHE inhibitor cariporide or with a subthreshold dose of ramipril with no lowering effect on the blood pressure or with a combination of both substances. For each of the four treatments 27 18-month old rats were employed. A daily dose of 400 mg of cariporide per kg body weight (0.6% cariporide in standard rat feed) and 10 μg ramipril per kg body weight (in the drinking water) were given. 3 months after the start of treatment, when the number of surviving animals in the placebo control group was only 7, an interim analysis was carried out on 7 animals from each group. The remaining, still living rats per group were continuously treated as mentioned above since they were 18 months old.
Thus, in the determination of the survival time […] 18-month old rats were employed in each experimental group (table 1).
There are evidently distinct differences between placebo and product groups on the one hand and between the individual products and the combination after the experiment had lasted only 3-4 months.
The statistical analysis was carried out essentially using the SAS/STAT procedure LIFETEST [SAS Institute Inc. (1989): SAS/STAT User's Guide, Version 6, 4th Edition, Volume 2, Cary, N.C.; SAS Institute Inc.]. The log rank tests were carried out pairwise on the experimental groups and adjusted to obtain a multiple significance level of 5% according to Holm [S. Holm (1979): A Simple Sequentally Rejective Multiple Test Procedure; Scand. J. Statist.; 6, pp 65-70].

[2] = system: hearts of old spontaneously hypertensive rats; assay: Interim analysis 3 months after start of treatment: heart function, myocardial fibrosis (Hyp/Arg), heart weight; format: in vivo, rat; conditions: 7 animals per group; for Force of myocardial contraction / function of the heart: compared with placebo control hearts, 3 months after start of treatment
Experimental: as §1, §2
As mentioned above, 3 months after the start of treatment, when the number of surviving animals in the placebo control group was only 7, an interim analysis was carried out on 7 animals from each group. The weight of the complete heart and the weight of the left and right ventricle were measured. Just so, the molar ratio of hydroxyproline and ariginine in the heart tissues was measured (measured via HPLC), which is a marker for the myocardial fibrosis. […] Hyp/Arg is the ratio of hydroxyproline to arginine and is regarded as a fibrosis marker.
These effects are also reflected in the weights of the hearts (FIG. 3).

old normotensive rats = conditions: from WO 00/38661; cited from earlier work
[3] = system: spontaneously hypertensive rats; conditions: known for some time; cited from earlier work
[4] = age 18 months (start of treatment), 20 rats per group, cariporide 400 mg/kg/day in feed, ramipril 10 μg/kg/day in drinking water
[5] = age 19 months, of 20 rats per group
[6] = age 20 months, of 20 rats per group
[7] = age 21 months, of 20 rats per group
[8] = age 22 months, of 20 rats per group
[9] = age 23 months, of 20 rats per group
[10] = age 24 months, of 20 rats per group
[11] = age 25 months, of 20 rats per group
[12] = age 26 months, of 20 rats per group
[13] = age 27 months, of 20 rats per group
[14] = age 28 months, of 20 rats per group
[15] = age 29 months, of 20 rats per group
[16] = pairwise comparison, multiple significance level of 5%

| SMILES | Number of surviving rats [1, 4] | Number of surviving rats [1, 5] | Number of surviving rats [1, 6] | Number of surviving rats [1, 7] | Number of surviving rats [1, 8] | Number of surviving rats [1, 9] | Number of surviving rats [1, 10] | Number of surviving rats [1, 11] | Number of surviving rats [1, 12] | Number of surviving rats [1, 13] | Number of surviving rats [1, 14] | Number of surviving rats [1, 15] | Holm-adjusted log rank test of survival vs. Placebo [1, 16] | Survival rate compared with the placebo treatment ([1]; result in words) | Median survival time [1] [months] | Force of myocardial contraction / function of the heart [2] | also measured |
| --- | --- | --- | --- | --- | --- | --- | --- | --- | --- | --- | --- | --- | --- | --- | --- | --- | --- |
| CC(C)c1ccc(C(=O)N=C(N)N)cc1S(C)(=O)=O.CS(=O)(=O)O [Cariporide, cariporide] | 20 | 18 | 16 | 12 | 8 | 7 | 7 | 5 | 0 | 0 | 0 | 0 | * | statistically significant improvement in the survival rate | 4.0 | significantly improved the function of the heart | Difference in survival rates between cariporide and ramipril ([1]; result in words, chosen significance level): No significant differences; Weight of the hearts ([2]; 3 months after start of late treatment): significantly smaller weights of the hearts; Myocardial fibrosis (Hyp/Arg ratio of hydroxyproline to arginine) ([2]; 3 months after start of late treatment, HPLC): significantly reduced; also recorded: possible for a preexisting fibrosis to be reduced |
| CCOC(=O)[C@H](CCc1ccccc1)N[C@@H](C)C(=O)N1[C@H](C(=O)O)C[C@@H]2CCC[C@@H]21 [Ramipril, ramipril] | 20 | 18 | 15 | 11 | 9 | 4 | 0 | 0 | 0 | 0 | 0 | 0 | * | statistically significant improvement in the survival rate | 4.0 | significant reduction in the force of myocardial contraction | Holm-adjusted log rank test of survival vs. Cariporide [1, 16]: n.s.; Protective effect on pathological age-related organ changes (old normotensive rats): no protective effect at all; Life span of spontaneously hypertensive rats [3]: significantly prolongs the life span |
